# According to PubChem BioAssay AID256 (DTP/NCI, 2004):
# Values joined by “and” are separate entries in the source; they are usually repeats but may differ in a detail not shown here. Equal values may be shown once. Inconclusive results and toxic doses are left out. Non-standard residues stand in square brackets, D forms with d. Residues, ends and D or L forms follow the SMILES beside them. ξ: configuration not given here. *: point of attachment. ξAsp(βξ-Me) = CC(C(=O)O)C(N)C(=O)O; X5 = CC(N*)C1NC(=O)C2CCCCN2C1=O; ξAbu(3ξ-NH2) = CC(N)C(N)C(=O)O; X4 = CCC(C)CCC/C=C/CC(=O)*
# Tested on: CD2F1 mice, L1210 leukemia ip, survival T/C
# Test: NCI In Vivo Anticancer Drug Screen. Data for tumor model L1210 Leukemia (intraperitoneal) in CD2F1 (CDF1) mice
# Conditions: higher = longer survival
# Method in brief: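 Each value reflects a quotient of treated over vehicle control outcomes in mice with a transplanted tumor.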
# [1] = endpoint: mean survival time, dose: 100.0 mg/kg/injection, schedule: Q04DX003 (ip), vehicle: saline with Tween-80
# [2] = endpoint: mean survival time, dose: 200.0 mg/kg/injection, schedule: Q04DX003 (ip), vehicle: saline with Tween-80
# [3] = endpoint: mean survival time, dose: 400.0 mg/kg/injection, schedule: Q04DX003 (ip), vehicle: saline with Tween-80
structure (smiles),measurement,setting,value
COC(=O)CC1(C(=O)OC)NC(=O)c2cc(OC)c(Cl)cc2N1 (centres undefined),T/C,"endpoint: mean survival time, dose: 100.0 mg/kg/injection, schedule: Q01DX001 (ip), vehicle: saline with Tween-80",88 % of control
same,T/C,"endpoint: mean survival time, dose: 100.0 mg/kg/injection, schedule: Q04DX002 (ip), vehicle: saline with Tween-80",96 % of control
same,T/C,"endpoint: mean survival time, dose: 200.0 mg/kg/injection, schedule: Q01DX001 (ip), vehicle: saline with Tween-80",94 % of control
same,T/C,"endpoint: mean survival time, dose: 200.0 mg/kg/injection, schedule: Q04DX002 (ip), vehicle: saline with Tween-80",96 % of control
same,T/C,"endpoint: mean survival time, dose: 400.0 mg/kg/injection, schedule: Q01DX001 (ip), vehicle: saline with Tween-80",95 % of control
same,T/C,"endpoint: mean survival time, dose: 400.0 mg/kg/injection, schedule: Q04DX002 (ip), vehicle: saline with Tween-80",86 % of control
CCC(C)CCC/C=C/CC(=O)NC(CC(=O)O)C(=O)NC(C(=O)NC(CC(=O)O)C(=O)NCC(=O)NC(CC(=O)O)C(=O)NCC(=O)NC(C(=O)NC(C(=O)N1CCCC1C(=O)NC(C)C1NC(=O)C2CCCCN2C1=O)C(C)C)C(C)N)C(C)C(=O)O (stereo not drawn) (X4-D[ξAsp(βξ-Me)]DGDG[ξAbu(3ξ-NH2)]VP-X5; configuration not given here),T/C,"endpoint: mean survival time, dose: 100.0 mg/kg/injection, schedule: Q01DX009 (ip), vehicle: saline + alcohol",93 % of control
same,T/C,"endpoint: mean survival time, dose: 200.0 mg/kg/injection, schedule: Q01DX009 (ip), vehicle: saline + alcohol",87 % of control
CCC(Cc1ccccc1)C(=O)O (centres undefined),T/C,"endpoint: mean survival time, dose: 100.0 mg/kg/injection, schedule: Q04DX003 (ip), vehicle: saline",108 % of control
same,T/C,"endpoint: mean survival time, dose: 200.0 mg/kg/injection, schedule: Q04DX003 (ip), vehicle: saline",97 % of control
same,T/C,"endpoint: mean survival time, dose: 400.0 mg/kg/injection, schedule: Q04DX003 (ip), vehicle: saline",97 % of control
O=C(CC(NC(=O)OCc1ccccc1)c1nn[nH]n1)OCc1ccccc1 (centres undefined),T/C,[1],86 % of control
same,T/C,[2],94 % of control
same,T/C,[3],91 % of control
Nc1ccc(S(=O)(=O)N(CCO)CCO)cc1[N+](=O)[O-],T/C,[1],96 % of control
same,T/C,[2],98 % of control
same,T/C,[3],95 % of control
C[n+]1c(-c2ccc(/C=N/NC(=O)c3ccc(C(=O)N/N=C/c4ccc(-c5cn6ccccc6[n+]5C)cc4)cc3)cc2)cn2ccccc21,T/C,"endpoint: median survival time, dose: 25.0 mg/kg/injection, schedule: Q01DX005 (ip), vehicle: saline with Tween-80",162 % of control
same,T/C,"endpoint: median survival time, dose: 43.2 mg/kg/injection, schedule: Q01DX005 (ip), vehicle: saline with Tween-80",200 % of control
same,T/C,"endpoint: median survival time, dose: 72.0 mg/kg/injection, schedule: Q01DX005 (ip), vehicle: saline with Tween-80",362 % of control
same,T/C,"endpoint: median survival time, dose: 100.0 mg/kg/injection, schedule: Q01DX005 (ip), vehicle: saline with Tween-80",307 % of control
same,T/C,"endpoint: median survival time, dose: 120.0 mg/kg/injection, schedule: Q01DX005 (ip), vehicle: saline with Tween-80",375 % of control
same,T/C,"endpoint: median survival time, dose: 200.0 mg/kg/injection, schedule: Q01DX005 (ip), vehicle: saline with Tween-80",329 % of control and 375 % of control
same,T/C,"endpoint: median survival time, dose: 333.33 mg/kg/injection, schedule: Q01DX005 (ip), vehicle: saline with Tween-80",162 % of control
same,T/C,"endpoint: median survival time, dose: 400.0 mg/kg/injection, schedule: Q01DX005 (ip), vehicle: saline with Tween-80",329 % of control
C=CC[n+]1ccccc1/C=C\c1ccc(N(C)C)cc1,T/C,"endpoint: mean survival time, dose: 75.0 mg/kg/injection, schedule: Q01DX001 (ip), vehicle: saline",118 % of control
CN=C(NC)c1ccc(NC(=O)/C=C\c2ccc(/C=C/C(=O)Nc3ccc(C(=NC)NC)cc3)cc2)cc1,T/C,"endpoint: median survival time, dose: 1.5 mg/kg/injection, schedule: Q01DX009 (ip), vehicle: Klucel (hydroxypropylcellulose) (HPC)",112 % of control
same,T/C,"endpoint: median survival time, dose: 3.0 mg/kg/injection, schedule: Q01DX009 (ip), vehicle: Klucel (hydroxypropylcellulose) (HPC)",124 % of control
same,T/C,"endpoint: median survival time, dose: 3.12 mg/kg/injection, schedule: Q01DX009 (ip), vehicle: Klucel (hydroxypropylcellulose) (HPC)",151 % of control
same,T/C,"endpoint: median survival time, dose: 6.0 mg/kg/injection, schedule: Q01DX009 (ip), vehicle: Klucel (hydroxypropylcellulose) (HPC)",181 % of control
same,T/C,"endpoint: median survival time, dose: 6.25 mg/kg/injection, schedule: Q01DX009 (ip), vehicle: Klucel (hydroxypropylcellulose) (HPC)",186 % of control
same,T/C,"endpoint: median survival time, dose: 12.0 mg/kg/injection, schedule: Q01DX009 (ip), vehicle: Klucel (hydroxypropylcellulose) (HPC)",124 % of control
same,T/C,"endpoint: median survival time, dose: 12.5 mg/kg/injection, schedule: Q01DX009 (ip), vehicle: Klucel (hydroxypropylcellulose) (HPC)",124 % of control
Oc1ccc(Nc2c3ccccc3nc3c2ccc2ccccc23)cc1CN(CCCl)CCCl,T/C,"endpoint: mean survival time, dose: 6.25 mg/kg/injection, schedule: Q01DX009 (ip), vehicle: saline",91 % of control
Cc1ncc(COP(=O)(O)O)c(C=NC(Cc2ccc(O)c(O)c2)C(=O)O)c1O.O.[Cu] (centres undefined),T/C,"endpoint: mean survival time, dose: 12.5 mg/kg/injection, schedule: Q01DX001 (ip), vehicle: saline",100 % of control
same,T/C,"endpoint: mean survival time, dose: 25.0 mg/kg/injection, schedule: Q01DX001 (ip), vehicle: saline",93 % of control
same,T/C,"endpoint: mean survival time, dose: 50.0 mg/kg/injection, schedule: Q01DX001 (ip), vehicle: saline",86 % of control
CCC1(O)C(=O)OCc2c1cc1n(c2=O)Cc2cc3cc(Cl)ccc3nc2-1 (centres undefined),T/C,"endpoint: median survival time, dose: 5.0 mg/kg/injection, schedule: Q04DX002 (ip), vehicle: saline with Tween-80",196 % of control
same,T/C,"endpoint: median survival time, dose: 10.0 mg/kg/injection, schedule: Q04DX002 (ip), vehicle: saline with Tween-80",264 % of control and 280 % of control
same,T/C,"endpoint: median survival time, dose: 40.0 mg/kg/injection, schedule: Q04DX002 (ip), vehicle: saline with Tween-80",89 % of control
c1cc2c(cc1CC1CCNC1)OCO2 (centres undefined),T/C,"endpoint: mean survival time, dose: 5.0 mg/kg/injection, schedule: Q01DX001 (ip), vehicle: saline",103 % of control
same,T/C,"endpoint: mean survival time, dose: 5.0 mg/kg/injection, schedule: Q01DX009 (ip), vehicle: saline sonified",100 % of control
same,T/C,"endpoint: mean survival time, dose: 5.0 mg/kg/injection, schedule: Q04DX003 (ip), vehicle: saline",101 % of control
same,T/C,"endpoint: mean survival time, dose: 10.0 mg/kg/injection, schedule: Q01DX001 (ip), vehicle: saline",103 % of control
same,T/C,"endpoint: mean survival time, dose: 10.0 mg/kg/injection, schedule: Q01DX009 (ip), vehicle: saline sonified",91 % of control
same,T/C,"endpoint: mean survival time, dose: 10.0 mg/kg/injection, schedule: Q04DX003 (ip), vehicle: saline",102 % of control
same,T/C,"endpoint: mean survival time, dose: 20.0 mg/kg/injection, schedule: Q01DX001 (ip), vehicle: saline",98 % of control
same,T/C,"endpoint: mean survival time, dose: 20.0 mg/kg/injection, schedule: Q01DX009 (ip), vehicle: saline sonified",100 % of control
same,T/C,"endpoint: mean survival time, dose: 20.0 mg/kg/injection, schedule: Q04DX003 (ip), vehicle: saline",101 % of control
